Measurements taken from patent publication US6514942B1, “Methods and compositions for stimulating T-lymphocytes” (The Board of Regents, The University of Texas System, priority 1995, dated 2003).
Entries after “also recorded” stand apart in the source; their conditions may differ.

What was measured:
HLA-A2 of T2 cells = molecular target: T1, HLA-A2 of T2 cells (Homo sapiens, UniProt P04439, D140Y/D185E/D98H/E176V/E277Q/G131W/G231S/I119V/I121R/I166T/I218V/L300P/L318F/N151K/N90K/P208A/P217A/Q86G/Q94H/R138H/R169H/T345S); test: Reactivity of MA2.1 mAb with T2 cells after culture with peptide (immunofluorescence, FL1); assay type: cell-based; settings: peptide 50 μg/ml, overnight culture in IMDM-FCS
T1 construct: cell surface expression of HLA-A2 is lower (30-40%) than in normal LBL lines transfected with HLA-A2; endogenous in cells; host or cells: T2 (transport deletion mutant) human lymphoblastoid cells, obtained from Dr. Peter Creswell
Description: FIG. 5A. Effects of HER-2 peptides on reactivity of MA2.1 mAb with T2 cells. Fluorescence analysis and determination of FL1 were performed as described (Stauss et al., 1992). Peptides were added to T2 cells at 50 μg/ml (final concentration). After overnight culture, in IMDM-FCS, cells were washed and the levels of HLA-A2 expression were determined using HLA-A2 specific mAb.
mAbs to CD3 (OKT3-FITC), CD4 (OKT4-FITC) and CD8 (OKT8-FITC) were obtained from Ortho Diagnostic (Ortho, Raritan, N.J.), mAb W6/32 (anti-HLA, -A, -B, -C) from Dako (Dako-Dakopatts, Denmark); HLA-A2 reacting mAb BB7.2 and MA2.1 from ATCC. Immunofluorescence studies were performed as described in Example 1.
To determine whether these peptides and longer analogs affect HLA-A2 conformation as an indication of HLA-A2 binding, the effects of HER-2 peptides on the reactivity of conformationally dependent mAb MA2.1 and BB.7.2 were examined with HLA-A2 of T2 cells. The human cell line T2 has a defect affecting endogenous peptide loading of MHC class I molecules. As a consequence, cell surface expression of HLA-A2 is lower (30-40%) than in normal LBL lines transfected with HLA-A2 (e.g., C1R) but the reactivity of MA2.1 and BB.7.2 mAb is increased when certain HLA-A2 binding peptides are added to the culture medium (Anderson et al., 1993). Although most human MHC class I molecules cannot be induced at the low temperatures used for their murine counterparts because of fundamental structural differences between human and mouse class I (Anderson et al., 1993), the fact that they express few endogenous (mainly signal) peptides (Zweerink et al., 1993) increases the sensitivity of detection of peptide-HLA-A2 interaction.

OVA-1, HER-2high = test: Lysis of peptide pre-pulsed autologous tumor by CTL-TAL (HLA-A2- system); assay type: cell-based, human; settings: OVA-1 pre-pulsed with peptide
Description: (§1) Tumor cells and fibroblasts were labeled with 200 μCi of ^51Cr (Na^51CrO4; Amersham, Arlington Heights, Ill.) for 90 min at 37° C. (Ioannides et al., 1991). Lymphoblastoid cells and HLA-A2 transfectants were labeled overnight in RPMI-FCS, then washed three times and incubated with effector cells in RPMI-FCS in an incubator with 5%. CO2 (Bednarek et al., 1991; Gammon et al., 1992). When peptide recognition was determined, targets were incubated with 25 μM of peptides overnight during ^51Cr labeling or with 10 μM peptide for 2 h at 37° C. in RPMI-FCS then washed three times before being incubated with effector cells. Separate controls for spontaneous and total lysis were made for each peptide-pulsed target (Ioannides et al., 1991; Bednarek et al., 1991; Gammon et al., 1992). After 4-5 h, 100 μl of supernatant was collected and counted. To determine maximum lysis in 20-h assays, plates were left undisturbed in the incubator and the supernatant was collected after overnight incubation. For cold target inhibition studies, C1R:A2 cells were preincubated with HER-2 or control peptides overnight, then washed and admixed with ^51Cr-labeled targets at 2:1 and 6:1 (cold:hot targets) ratios. Percentage lysis was calculated from the formula: 100×[(E−S)/(T−S)], where E is experimental release, S is release in the absence of CTL, and T is release in 2 M HCl.
(§2) To address whether these peptides interfere with tumor lysis by autologous tumor reactive CTL-TAL in HLA-A2^− systems, the lysis of OVA-1, HER-2^high (HLA-A1, 24, B8, 35, Cw4) and OVA-31, HER-2^high was determined by pre-pulsing with either C43 or as a control, C44 peptide (VS→II). Target lysis by CTL-1 was: OVA-1 (68%), K562 (18%), OVA-1 plus C43 (37%), and OVA-1 plus C44 (51%). […] However, C43 and C44 had no effect on lysis of OVA-31 by CTL-31.

OVA-31, HER-2high = test: as above; assay type: cell-based, human; settings: OVA-31 pre-pulsed with peptide
Description: as §1, §2

C1R:A2 cells = test: Lysis of peptide-sensitized C1R:A2 cells by CTL cultures induced in vitro with C43 and C84; assay type: cell-based, human; settings: E:T 10:1, donor 51
[1] = test system: OVA-16 (HLA-A2+, HER-2high) ovarian tumor; test: Cold target inhibition of OVA-16 lysis by 41.CD8+ CTL with peptide-pulsed C1R:A2 cells; assay type: cell-based, human; settings: cold:hot 2:1, E:T 10:1, 4- and 20-h assays
Description: (§3) FIG. 4A. Target specificity of the 41.CD8^+ CTL were tested for the ability to lyse 5^1Cr-labeled OVA-16 at an E:T ratio of 10:1. C1R:A2 cells (A2.1) were incubated with synthetic peptides (D125, C43, C85), washed, and used in cold target inhibition studies at a cold:hot ratio of 2:1. Cytotoxicity studies were performed for 5 hr. Results represent the mean of three determinations. The variability between samples was less than 10%. The differences between determination are statistically significant (P<0.03) as determined by Student's t test. Percentage inhibition is indicated in parentheses.
as §3, with “FIG. 4B.” for “FIG. 4A.”, “lyse ^51Cr-labeled” for “lyse 5^1Cr-labeled”, “for 20” for “for 5”
as §1
To confirm that the 41.CD8^+ CTL line recognizes epitopes on HER-2^high tumors contained on peptides used for stimulation, cold target inhibition studies were performed. […]

RFRELVSEFSRMAR [Peptide C43, HER-2:968-981 14mer peptide]
FL1 of T2 cells stained with MA2.1 mAb (HLA-A2 of T2 cells): failed to significantly increase FL1 | Target lysis by CTL-1 (OVA-1, HER-2high): 37% | inhibition of lysis of OVA-1 by CTL-1 (OVA-1, HER-2high): 45% | effect on lysis of OVA-31 by CTL-31 (OVA-31, HER-2high): no effect | difference between HER-2 peptide and control targets recognition (C1R:A2 cells; 4-hr assay): not significant | difference between HER-2 peptide and control targets recognition (C1R:A2 cells; 20-hr assay): significant | inhibition of tumor lysis by peptide-pulsed cold targets [1]: inhibited the lysis of the OVA-16 tumor; also recorded: inhibit HER-2^high tumor lysis

ELVSEFSRV [Peptide C84, HER-2:971-979 analog, Met(P9) substituted by Val]
FL1 of T2 cells stained with MA2.1 mAb (HLA-A2 of T2 cells): significant increase in FL1 | difference between HER-2 peptide and control targets recognition (C1R:A2 cells; 4-hr assay): not significant | difference between HER-2 peptide and control targets recognition (C1R:A2 cells; 20-hr assay): significant | inhibition of tumor lysis by peptide-pulsed cold targets [1]: inhibit HER-2^high tumor lysis; also recorded: specifically inhibit tumor lysis
